Test systems include U-251; NCI-H23; CAKI-1; OVCAR-4; UACC-257; NCI-H460; HCT-15; KM12; OVCAR-5; PC-3; A498; ACHN; UO-31; A549; NCI-H226; HCT-116; NCI/ADR-RES; OVCAR-3; Malme-3M; HCC 2998.
Holding throughout (experiment): inhibition of tumour cell growth, NCI panel, 48 h

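Assay format: 96-well plates, 48-hour exposure. GI50 is the concentration that inhibits growth by half.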 The source made the active and inactive calls. Cut-off read from the data, not from the text of the source: active = GI50 up to about 1.1 µM and inactive = higher. Some results are limits rather than exact numbers.

On to `COc1ccc2nccc(SCC(=O)O)c2c1`, for which the GI50 in the test with U-251, in the test on NCI-H23, in the test with CAKI-1, with OVCAR-4, in the test on UACC-257 and in the test with NCI-H460 was > 100 µM (inactive) each time. For the same molecule, the GI50 with HCT-15 is over 100 µM; in the test with KM12, > 100 µM (inactive); with OVCAR-5, > 100 µM (inactive); in the test on PC-3 it was > 100 µM (inactive); in the test with A498, > 100 µM (inactive); in the test on ACHN, > 100 µM (inactive). Also, the GI50 in the test on UO-31, in the test with A549, with NCI-H226, with HCT-116, in the test on NCI/ADR-RES and in the test on OVCAR-3 was > 100 µM (inactive) each time.

On to `CN(C)CCNC(=O)c1cccc2c(NC(CCCNC(=N)N)C(=O)O)c3ccccc3nc12` (stereo not given), for which the GI50 in the test on U-251 was 14.3 µM (inactive); in the test with NCI-H23 it was 5.53 µM (inactive); in the test on OVCAR-4 it was 5.09 µM (inactive); in the test on Malme-3M, 3.86 µM (inactive); in the test on HCT-15, 6.37 µM; in the test on KM12, 7.26 µM (inactive). Further, the GI50 in the test on OVCAR-5 is 9.95 µM (inactive); in the test on PC-3, 9.1 µM (inactive); in the test with A498 it was 19.8 µM (inactive); in the test on ACHN, 2.79 µM (inactive); with UO-31, 2.82 µM (inactive); in the test with A549, 4.8 µM (inactive). Besides, the GI50 in the test with NCI-H226 was 3.88 µM (inactive); with HCT-116, 3.93 µM (inactive); with NCI/ADR-RES it was 3.75 µM (inactive); in the test on OVCAR-3 it was 18.1 µM (inactive).

As to `Clc1ccccc1/C=C\C1(c2ccccc2)OCCO1`, the GI50 with U-251 was 12.2 µM (inactive); in the test on NCI-H23 it was 10.2 µM (inactive); with CAKI-1 it was 17.3 µM (inactive); in the test on OVCAR-4, 18 µM (inactive); with UACC-257, 16.7 µM (inactive); in the test with NCI-H460 it was 16.8 µM (inactive). Besides, the GI50 with HCT-15 was 12.6 µM; in the test on KM12, 11 µM (inactive); with OVCAR-5 it was 20 µM (inactive); in the test with HCC 2998, 17.5 µM (inactive); with A498, 20.7 µM (inactive); with ACHN, 17.3 µM (inactive). The GI50 with UO-31 is > 100 µM (inactive); in the test on A549, > 100 µM (inactive); with NCI-H226, 27.1 µM (inactive); in the test with HCT-116 it was 12.3 µM (inactive); in the test on NCI/ADR-RES, 16.4 µM (inactive); with OVCAR-3, 17.7 µM (inactive).

For the molecule `NC(=S)NS(=O)(=O)c1ccc(F)cc1`, the GI50 with U-251, with NCI-H23, in the test with CAKI-1, in the test on OVCAR-4, with Malme-3M and with UACC-257 was > 100 µM (inactive) in each case. Moreover, the GI50 in the test with NCI-H460 is > 100 µM (inactive); in the test on HCT-15 it was over 100 µM; in the test on KM12, > 100 µM (inactive); in the test with OVCAR-5, > 100 µM (inactive); with PC-3, > 100 µM (inactive); in the test with HCC 2998, > 100 µM (inactive). The GI50 in the test with ACHN, with A549, with NCI-H226, in the test with HCT-116, in the test on NCI/ADR-RES and with OVCAR-3 was > 100 µM (inactive) in each case.

As for `Oc1ccc(-c2nc(-c3cccnc3)c(-c3ccc(Cl)cc3)[nH]2)cc1O`, the GI50 with U-251 is 11 µM (inactive); in the test with NCI-H23 it was 11.7 µM (inactive); with CAKI-1, 15.1 µM (inactive); in the test with OVCAR-4, 16.1 µM (inactive); with Malme-3M, 14 µM (inactive); in the test with UACC-257, 15.1 µM (inactive). Further, the GI50 in the test with HCT-15 was 10.3 µM; in the test with KM12, 8.97 µM (inactive); in the test with OVCAR-5 it was 18.7 µM (inactive); in the test on PC-3 it was 9.2 µM (inactive); in the test on HCC 2998, 13.7 µM (inactive); in the test with ACHN, 9.95 µM (inactive). Also, the GI50 in the test with UO-31 was 12.8 µM (inactive); in the test on A549, 20.1 µM (inactive); in the test on NCI-H226 it was 16.2 µM (inactive); in the test on HCT-116, 11.7 µM (inactive); with NCI/ADR-RES, 14.1 µM (inactive); in the test on OVCAR-3, 3.43 µM (inactive).

`O=C1NC(N2CCCC(CO)C2)=N/C1=C\c1ccccc1` (stereo not given): the GI50 with U-251, in the test with NCI-H23, with CAKI-1, in the test on OVCAR-4, with Malme-3M and with UACC-257 was > 100 µM (inactive) in each case. Moreover, the GI50 was over 100 µM in the test with HCT-15; > 100 µM (inactive) in the test on KM12; > 100 µM (inactive) with OVCAR-5; > 100 µM (inactive) in the test with PC-3; > 100 µM (inactive) with HCC 2998; > 100 µM (inactive) with ACHN. Besides, the GI50 with UO-31, in the test on A549, in the test with NCI-H226, with HCT-116, in the test with NCI/ADR-RES and with OVCAR-3 was > 100 µM (inactive) in each case.

`COC1=N[C@H](C(C)C)C(OC)=N[C@H]1Cc1ccc(C[C@@H]2N=C(OC)[C@@H](C(C)C)N=C2OC)s1`: the GI50 in the test with U-251 is 24 µM (inactive); with NCI-H23 it was 25.1 µM (inactive); in the test on CAKI-1, 50.2 µM (inactive); with OVCAR-4, 37.7 µM (inactive); in the test on Malme-3M, 22.6 µM (inactive); with UACC-257, 26.3 µM (inactive). Besides, the GI50 in the test with NCI-H460 is 58.3 µM (inactive); in the test with HCT-15, 46.1 µM; with KM12, 38.6 µM (inactive); in the test on OVCAR-5, 17.5 µM (inactive); in the test with PC-3, 21.3 µM (inactive); in the test with HCC 2998, 34.2 µM (inactive). Besides, the GI50 in the test on ACHN was 29.4 µM (inactive); in the test with UO-31, 45.4 µM (inactive); in the test on A549, 29 µM (inactive); in the test on HCT-116, 31 µM (inactive); in the test with NCI/ADR-RES it was 52.6 µM (inactive); in the test on OVCAR-3 it was 58.9 µM (inactive).

In the case of `CCOC(=O)C(C)NC(=O)C(C)NC(=O)C(C)NC(=O)C(C)NC(=O)C(C)NC(=O)OCc1ccccc1` (stereo not given), the GI50 in the test on U-251, in the test with NCI-H23, in the test with CAKI-1, in the test on OVCAR-4, with Malme-3M and in the test with UACC-257 was > 100 µM (inactive) throughout. Further, the GI50 in the test with NCI-H460 is > 100 µM (inactive); in the test on HCT-15, over 100 µM; in the test on KM12, > 100 µM (inactive); with OVCAR-5 it was > 100 µM (inactive); in the test on PC-3, > 100 µM (inactive); in the test with HCC 2998 it was > 100 µM (inactive). Besides, the GI50 in the test on ACHN, with UO-31, with A549, in the test on NCI-H226, with HCT-116 and in the test with NCI/ADR-RES was > 100 µM (inactive) each time. The GI50 in the test on OVCAR-3 is > 100 µM (inactive).

Regarding `O=C(Nc1ccc(N2C(=O)CSC2c2ccccc2O)cc1)c1ccc(N2C(=O)CSC2c2ccccc2O)cc1` (stereo not given), the GI50 in the test with U-251 was 34 µM (inactive); in the test on NCI-H23, 64.4 µM (inactive); with CAKI-1, > 100 µM (inactive); in the test on OVCAR-4, 67.6 µM (inactive); with Malme-3M, 98.4 µM (inactive); with UACC-257, > 100 µM (inactive). Moreover, the GI50 in the test on NCI-H460 is 83.8 µM (inactive); in the test with HCT-15 it was over 100 µM; with KM12 it was > 100 µM (inactive); with OVCAR-5, 83.6 µM (inactive); in the test with PC-3, 43.3 µM (inactive); in the test with HCC 2998 it was > 100 µM (inactive). The GI50 in the test with ACHN is 35.6 µM (inactive); in the test with UO-31, 54.5 µM (inactive); in the test with A549, 40.7 µM (inactive); with HCT-116, 88.3 µM (inactive); in the test with NCI/ADR-RES, > 100 µM (inactive); with OVCAR-3 it was 84.7 µM (inactive).

For `COC([C@@H](OC(=O)c1ccccc1)[C@H](OC(=O)c1ccccc1)C(O)COC(=O)c1ccccc1)n1cc(C)c(=O)[nH]c1=O` (stereo not given in full), the GI50 is 14.5 µM (inactive) in the test on U-251; 29.4 µM (inactive) with NCI-H23; 7.83 µM (inactive) in the test with OVCAR-4; 23.6 µM (inactive) in the test with Malme-3M; 34.2 µM (inactive) in the test with UACC-257; 27.3 µM (inactive) with NCI-H460. The GI50 with HCT-15 was 27 µM; in the test with OVCAR-5, 19.1 µM (inactive); in the test with PC-3, 4.83 µM (inactive); with ACHN it was 31.6 µM (inactive); in the test on UO-31 it was 25.5 µM (inactive); with A549, 16.4 µM (inactive). Moreover, the GI50 in the test on NCI-H226 is 20.8 µM (inactive); in the test on HCT-116, 23.6 µM (inactive); with NCI/ADR-RES it was 28.6 µM (inactive); in the test with OVCAR-3 it was 20.3 µM (inactive).

For the molecule `COC(=O)C1c2cc3c(c(O)c2CCC1(C)O)C(=O)c1c(O)cc2c(c1C3=O)OC1OC2(C)C(O)C(N(C)C)C1O` (stereo not given), the GI50 in the test with U-251 is 0.436 µM (active); with NCI-H23, 0.562 µM (active); in the test on CAKI-1 it was < 0.01 µM (active); with OVCAR-4, 0.158 µM (active); with Malme-3M, 0.162 µM (active); with UACC-257 it was 0.108 µM (active). For the same molecule, the GI50 in the test on NCI-H460 was 0.452 µM (active); in the test with HCT-15 it was 0.394 µM; with KM12 it was 0.345 µM (active); in the test with OVCAR-5 it was 0.263 µM (active); in the test with PC-3, 0.474 µM (active); in the test on ACHN it was 0.172 µM (active). Further, the GI50 was 1.4 µM (inactive) in the test on UO-31; 0.186 µM (active) in the test on A549; 0.0112 µM (active) in the test on NCI-H226; 0.245 µM (active) in the test with HCT-116; 1.61 µM (inactive) in the test with NCI/ADR-RES; 0.0991 µM (active) in the test with OVCAR-3.

These data come from ChEMBL document CHEMBL1201862, “PubChem BioAssay data set” (2004).
